From patent US20240156856A1, “NOVEL APPLICATIONS OF HYALURONIC ACID FOR TREATMENT OF PAIN AND PRURITIS” (THE REGENTS OF THE UNIVERSITY OF CALIFORNIA, priority 2022, published 2024)

How the values were obtained:
[1] = tested on: rats with bortezomib CIPN; experiment: Bortezomib CIPN mechanical hyperalgesia, Randall-Selitto paw-withdrawal test; format: in vivo, Sprague-Dawley rats; conditions: male rats; bortezomib 0.2 mg/kg i.v., 4 doses, day 7
Method: (§1) Experimental animals. Experiments were performed on 220-400 g male and female Sprague-Dawley rats, purchased from Charles River Laboratories (Hollister, CA, USA), housed three per cage, under a 12-hour light/dark cycle, in a temperature- and humidity-controlled animal care facility at the University of California, San Francisco. Food and water were available ad libitum. Experimental protocols were approved by the University of California, San Francisco, Institutional Animal Care and Use Committee, and adhered to the National Institutes of Health Guidelines for the care and use of laboratory animals.
(§2) Measurement of nociceptive threshold. Mechanical nociceptive threshold was quantified with an Ugo Basile Analgesymeter (Stoelting, Wood Dale, IL, USA), used to perform the Randall-Selitto paw-withdrawal test [61; 68; 69]. This device uses a dome-shaped plinth to apply a mechanical force that increases linearly with time, to the dorsum of a rat's hindpaw. To perform the Randall-Selitto paw-withdrawal test, rats were placed in cylindrical acrylic restrainers with lateral ports that allow access to the hind paw, as described previously. Rats were acclimatized to the testing procedure by placing them in restrainers for 1 h per day for 3 consecutive daily training sessions, and for 30-40 min prior to experiments.
Mechanical nociceptive threshold is defined as the force, in grams, applied by the plinth to the dorsum of the hindpaw, at which a rat withdraws its paw from the stimulus. Baseline paw-withdrawal threshold is defined as the mean of three readings taken before administration of test agents. To minimize experimenter bias, individuals conducting experiments were blinded to experimental treatments. Each experiment was performed on a different group of rats. Data are presented as mechanical nociceptive threshold, in grams (g) or percentage change from preintervention baseline. […]

[2] = tested on: rats with oxaliplatin CIPN; experiment: Oxaliplatin CIPN mechanical hyperalgesia, Randall-Selitto paw-withdrawal test; format: in vivo, Sprague-Dawley rats; conditions: for CIPN hyperalgesia, effect of hyaluronan molecular weight range: male rats with oxaliplatin CIPN, topical, combined with DMSO
Method: as §1, §2
(§3) Mechanical nociceptive threshold is defined as the force, in grams, applied by the plinth to the dorsum of the hindpaw, at which a rat withdraws its paw from the stimulus. Baseline paw-withdrawal threshold is defined as the mean of three readings taken before administration of test agents. To minimize experimenter bias, individuals conducting experiments were blinded to experimental treatments. Each experiment was performed on a different group of rats. Data are presented as mechanical nociceptive threshold, in grams (g) or percentage change from preintervention baseline.
(§4) Hyaluronans were initially dissolved in distilled water (dH2O) at a concentration of 10 μg/μL, stock solution, and further diluted by adding DMSO with three final concentrations of hyaluronan (1, 2 and 4 μg/μL), protamine or terpene; unless otherwise stated, the final concentration of DMSO was 75%. The DMSO vehicle was 75% DMSO in 0.9% saline. In one experiment, 500-1200 kDa hyaluronan was administered topically in 0.9% saline vehicle. PGE2 was dissolved in 0.9% saline at the same final concentration that we previously injected intradermally (100 ng/5 μL). In the experiments in which hyaluronan was dissolved in protamine or terpene vehicle, protamine was first dissolved in distilled water (dH2O) to a concentration of 5 μg/μ1, stock solution of hyaluronan was combined with protamine at the final concentration of 2 μg/μ1, in a volume of 3 μl, for topical administration; terpene was first dissolved in dH2O at the concentration of 2 μg/μ1, then hyaluronan was dissolved in stock solution of terpene to its final concentration of 2 μg/μ1, in a volume of 3 μl, for topical administration).
Oxaliplatin CIPN: Oxaliplatin was freshly dissolved in 0.9% saline at a concentration of 2 mg/mL just prior to its tail vein intravenous (i.v.) administration (1 mL/kg), to rats briefly anesthetized with isoflurane (2.5% in O2).
Hyaluronans (30 μL) were administered topically on the dorsum of the hind paw, dispensed from a P200 pipette (Gilson, Middleton, WI, USA) with a plastic pipette tip and then spread manually. […]
Before use, ODNs were reconstituted in nuclease-free 0.9% saline and then administered by the intrathecal (i.t.) route. As described previously, rats were anesthetized with isoflurane (2.5% in O2) and 120 μg of ODN, in a volume of 20 μL, injected i.t., using a syringe ([…]) attached to a 29-gauge hypodermic needle that was inserted into the subarachnoid space, between the L4 and L5 vertebrae. The i.t. site of the injectate was confirmed by a sudden flick of the rat's tail, a reflex evoked by subarachnoid space access and bolus i.t. injection. […]

[3] = tested on: PGE2 hyperalgesia in male and female rats; experiment: PGE2-induced mechanical hyperalgesia, Randall-Selitto paw-withdrawal test; format: in vivo, Sprague-Dawley rats; conditions: 100 ng intradermally, dorsum of hind paw, male and female rats
Method: as §1, §2, §3
Hyaluronans were initially dissolved in distilled water (dH2O) at a concentration of 10 μg/μL, stock solution, and further diluted by adding DMSO with three final concentrations of hyaluronan (1, 2 and 4 μg/μL), protamine or terpene; unless otherwise stated, the final concentration of DMSO was 75%. The DMSO vehicle was 75% DMSO in 0.9% saline. In one experiment, 500-1200 kDa hyaluronan was administered topically in 0.9% saline vehicle. PGE2 was dissolved in 0.9% saline at the same final concentration that we previously injected intradermally (100 ng/5 μL). […]

[4] = tested on: rats with paclitaxel CIPN; experiment: Paclitaxel CIPN mechanical hyperalgesia, Randall-Selitto paw-withdrawal test; format: in vivo, Sprague-Dawley rats; conditions: male rats; paclitaxel 1 mg/kg i.p., 4 doses, day 7
Method: as §1, §2, §3, §4
Paclitaxel CIPN: Paclitaxel was dissolved in Cremophor EL and ethanol (1:1) [1; 6; 20; 22] and diluted in 0.9% saline to a concentration of 1 mg/mL, just prior to its intraperitoneal (i.p.) administration (1 mg/kg, i.p.) [19; 42] to rats briefly anesthetized with isoflurane (2.5% in O2), every other day for a total of 4 doses.
Hyaluronans (30 μL) were administered topically on the dorsum of the hind paw, dispensed from a P200 pipette (Gilson, Middleton, WI, USA) with a plastic pipette tip and then spread manually.
Antisense oligodeoxynucleotides (ODNs).
Before use, ODNs were reconstituted in nuclease-free 0.9% saline and then administered by the intrathecal (i.t.) route. As described previously, rats were anesthetized with isoflurane (2.5% in O2) and 120 μg of ODN, in a volume of 20 μL, injected i.t., using a syringe ([…]) attached to a 29-gauge hypodermic needle that was inserted into the subarachnoid space, between the L4 and L5 vertebrae. […]

[5] = tested on: 5-HT-induced scratching behavior in rats; experiment: 5-HT-induced scratching (itch) behavior; format: in vivo; conditions: topical 100 μg in 50 μl 75% DMSO in water, 30 and 5 mins before 5-HT 200 μg i.d.
Method: Topical hyaluronan attenuates itch behavior in rats. Intradermal administration of serotonin (5-HT) elicited acute scratching behavior, using the method of Nojima and Carstens {Nojima and Carstens, 2003, #99335; PMID: 12814838}. Rats were acclimated to a testing chamber for 30 min, and then briefly anesthetized with 2% isoflurane, during which the fur over the nape of the neck was shaved, and 5-HT (200 μg in 10 μl 0.9% saline vehicle) injected with a 30 gauge needle. In the topical hyaluronan group, hyaluronan (100 μg in 50 μl 75% DMSO in water vehicle) was applied to the skin 30 mins and again 5 mins before administration of 5-HT. Rats were placed back into testing chambers and their behavior video recorded for 40 min. Number of hind paw scratches directed at the injection site were counted by watching video playback at half normal speed, and total number of scratches in 2-min intervals recorded. Rats were treated with 5-HT alone and topical hyaluronan with 5-HT, with 4 days between experimental sessions, allowing for use of paired t-tests to compare data. Data are presented as cumulative number of scratches (FIG. 9A), and as total scratches over the 40-min observation period (FIG. 9B). […] See also, FIG. 10, which includes additional data showing that topical hyaluronan attenuates 5-HT-induced scratching behavior. […] Data are presented as cumulative number of scratches.

rats = conditions: previously shown; cited from earlier work

CC(C)C[C@H](NC(=O)[C@H](Cc1ccccc1)NC(=O)c1cnccn1)B(O)O [Bortezomib, bortezomib, reference compound]
mechanical nociceptive threshold after chemotherapy [1]: decreased mechanical nociceptive threshold

O=C1[O][Pt]2([NH][C@@H]3CCCC[C@H]3[NH]2)[O]C1=O [Oxaliplatin, oxaliplatin, reference compound]
mechanical nociceptive threshold after chemotherapy ([2]; male rats, oxaliplatin 2 mg/kg i.v., day 7): decreased mechanical nociceptive threshold

CCCCC[C@H](O)/C=C/[C@H]1[C@H](O)CC(=O)[C@@H]1C/C=C\CCCC(=O)O [PGE2, prostaglandin E2, reference compound]
mechanical hyperalgesia after intradermal PGE2 [3]: produced robust mechanical hyperalgesia

CC(=O)O[C@H]1C(=O)[C@@]2(C)[C@H]([C@H](OC(=O)c3ccccc3)[C@]3(O)C[C@H](OC(=O)[C@H](O)[C@@H](NC(=O)c4ccccc4)c4ccccc4)C(C)=C1C3(C)C)[C@]1(OC(C)=O)CO[C@@H]1C[C@@H]2O [Paclitaxel, paclitaxel, reference compound]
mechanical nociceptive threshold after chemotherapy [4]: decreased mechanical nociceptive threshold

hyaluronan
number of 5-HT scratches over 40 min [5]: significantly attenuated the number of 5-HT scratches

hyaluronan [70-120 kDa hyaluronan]
CIPN hyperalgesia, effect of hyaluronan molecular weight range [2]: did not attenuate CIPN hyperalgesia

hyaluronan [150-300 kDa hyaluronan]
CIPN hyperalgesia, effect of hyaluronan molecular weight range [2]: produced robust anti-hyperalgesia, of similar magnitude and duration

hyaluronan [300-500 kDa hyaluronan]
CIPN hyperalgesia, effect of hyaluronan molecular weight range [2]: produced robust anti-hyperalgesia, of similar magnitude and duration

hyaluronan [1500-1750 kDa hyaluronan]
CIPN hyperalgesia, effect of hyaluronan molecular weight range [2]: produced robust anti-hyperalgesia, of similar magnitude and duration

hyaluronan [low molecular weight hyaluronan, reference compound]
nociceptive effect of intradermal injection (rats): induced hyperalgesia
